Columns and labels:
[1] = test system: KARPAS-620 (Plasma Cell Myeloma); experiment: Bliss excess, mean over the matrix (fraction); higher = more synergy
In short: (§1)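 Bliss excess equals the observed combination effect minus the expected value EA + EB − EA·EB, where EA and EB are the effects of each agent alone. Combination Emax is the second-highest inhibition within the matrix. Inhibition was scaled from CellTiter-Glo 2.0 luminescence, with 0 set by vehicle wells and 1 by blank wells, after 72 hours of two-drug dosing of cells plated in 1536-well plates.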

[2] = test system: NCI-H211 (Small Cell Lung Carcinoma); experiment: as above
In short: as §1

[3] = test system: MDA-MB-231 (Breast Carcinoma); experiment: as above
In short: as §1

[4] = test system: IHH-4 (Thyroid Gland Carcinoma); experiment: as above
In short: as §1

[5] = test system: KATOIII (Gastric Carcinoma); experiment: as above
In short: as §1

[6] = test system: SW1990 (Pancreatic Carcinoma); experiment: as above
In short: as §1

[7] = test system: U-266 (Plasma Cell Myeloma); experiment: as above
In short: as §1

[8] = test system: NCI-H1299 (Non-Small Cell Lung Carcinoma); experiment: as above
In short: as §1

[9] = test system: NALM-6 (B-Lymphoblastic Leukemia); experiment: as above
In short: as §1

[10] = test system: COR-L95 (Small Cell Lung Carcinoma); experiment: as above
In short: as §1

[11] = test system: HT-29 (Colorectal Carcinoma); experiment: as above
In short: as §1

NCI-H2595 (Mesothelioma) = experiment: as above
In short: as §1

[12] = test system: DB (B-Cell Non-Hodgkin's Lymphoma); experiment: as above
In short: as §1

[13] = test system: NCI-H211 (Small Cell Lung Carcinoma); experiment: combination Emax (second highest fraction inhibited in the dose matrix, 72 h); higher = more inhibition; extreme values may be limits of the assay
In short: as §1

[14] = test system: U-266 (Plasma Cell Myeloma); experiment: as above
In short: as §1

[15] = test system: NCI-H1299 (Non-Small Cell Lung Carcinoma); experiment: as above
In short: as §1

[16] = test system: COR-L95 (Small Cell Lung Carcinoma); experiment: as above
In short: as §1

[17] = test system: SW1783 (Low Grade Glioma); experiment: as above
In short: as §1

[18] = test system: G-292-Clone-A141B1 (Osteosarcoma); experiment: as above
In short: as §1

[19] = test system: KARPAS-1106P (B-Cell Non-Hodgkin's Lymphoma); experiment: as above
In short: as §1

| Structure (SMILES) | Bliss excess [1] | Bliss excess [2] | Bliss excess [3] | Bliss excess [4] | Bliss excess [5] | Bliss excess [6] | Bliss excess [7] | Bliss excess [8] | Bliss excess [9] | Bliss excess [10] | Bliss excess [11] | Bliss excess (NCI-H2595 (Mesothelioma)) | Bliss excess [12] | combination Emax [13] | combination Emax [14] | combination Emax [15] | combination Emax [16] | combination Emax [17] | combination Emax [18] | combination Emax [19] |
| --- | --- | --- | --- | --- | --- | --- | --- | --- | --- | --- | --- | --- | --- | --- | --- | --- | --- | --- | --- | --- |
| Cc1c2c(nn1C)CSCc1cc(n(C)n1)CSc1cc(c3ccccc3c1)OCCCc1c(C(=O)O)n(C)c3c-2c(Cl)ccc13 [AZD5991] + CS(=O)(=O)CCNCc1ccc(-c2ccc3ncnc(Nc4ccc(OCc5cccc(F)c5)c(Cl)c4)c3c2)o1 [Lapatinib] (first compound max 1 µM, 7x7, partner max 10 µM) | 0.0054 | -0.0118 | -0.0852 | 0.011 | -0.0787 | 0.0149 | -0.0501 | -0.0243 | -0.101 | -0.0199 | -0.0216 | -0.0398 | 0.0597 | 0.979 | 0.845 | 0.301 | 0.177 | 0.165 | 0.264 | 0.893 |
| Cc1c2c(nn1C)CSCc1cc(n(C)n1)CSc1cc(c3ccccc3c1)OCCCc1c(C(=O)O)n(C)c3c-2c(Cl)ccc13 [AZD5991] + Nc1ccn([C@@H]2O[C@H](CO)[C@@H](O)C2(F)F)c(=O)n1 [Gemcitabine] (first compound max 1 µM, 7x7, partner max 0.3 µM) | 0.031 | 0.0489 | -0.0947 | 0.0122 | 0.0444 | 0.0278 | 0.0379 | 0.006 | -0.0245 | -0.0274 | 0.0168 | -0.0053 | 0.06 | 1 | 0.944 | 0.527 | 0.407 | 0.673 | 0.152 | 0.981 |
| C=CCn1c(=O)c2cnc(Nc3ccc(N4CCN(C)CC4)cc3)nc2n1-c1cccc(C(C)(C)O)n1 [AZD1775] + CCc1c2c(nc3ccc(O)cc13)-c1cc3c(c(=O)n1C2)COC(=O)[C@]3(O)CC [SN-38] (first compound max 1 µM, partner max 0.3 µM) | -0.0145 | -0.0576 | 0.0031 | -0.0485 | -0.0948 | -0.0908 | -0.0555 | -0.0071 | -0.0563 | -0.103 | 0.027 | -0.0096 | -0.0366 | 0.989 | 0.715 | 0.751 | 0.542 | 0.825 | 0.464 | 0.924 |
| CN(CCO)CC[C@H](CSc1ccccc1)Nc1ccc(S(=O)(=O)NC(=O)c2ccc(N3CCC([C@@H](O)c4ccccc4-c4ccc(Cl)cc4)CC3)cc2)cc1S(=O)(=O)C(F)(F)F [AZD4320] + CC(=O)O[C@H]1C(=O)[C@@]2(C)[C@H]([C@H](OC(=O)c3ccccc3)[C@]3(O)C[C@H](OC(=O)[C@H](O)[C@@H](NC(=O)c4ccccc4)c4ccccc4)C(C)=C1C3(C)C)[C@]1(OC(C)=O)CO[C@@H]1C[C@@H]2O [Paclitaxel] (first compound max 1 µM, 7x7, partner max 3 µM) | 0.0111 | 0.0259 | 0.111 | -0.0267 | 0.168 | 0.329 | 0.0026 | 0.007 | 0.013 | 0.141 | 0.0034 | 0.0192 | 0.043 | 1 | 0.966 | 0.892 | 1 | 0.875 | 0.891 | 0.97 |
| CS(=O)(=O)CCNCc1ccc(-c2ccc3ncnc(Nc4ccc(OCc5cccc(F)c5)c(Cl)c4)c3c2)o1 [Lapatinib] + Cn1cnc2c(F)c(Nc3ccc(Br)cc3Cl)c(C(=O)NOCCO)cc21 [Selumetinib] (first compound max 10 µM, 7x7, partner max 10 µM) | 0.0746 | 0.0084 | -0.0236 | -0.0136 | -0.0223 | 0.0373 | 0.0347 | 0.0085 | 0.021 | -0.0382 | 0.0362 | -0.0548 | 0.0388 | 0.876 | 0.621 | 0.338 | 0.207 | 0.216 | 0.192 | 0.617 |
| O=C(c1cc(Cc2n[nH]c(=O)c3ccccc23)ccc1F)N1CCN(C(=O)C2CC2)CC1 [Olaparib] + CC1(C)CCC(CN2CCN(c3ccc(C(=O)NS(=O)(=O)c4ccc(NCC5CCOCC5)c([N+](=O)[O-])c4)c(Oc4cnc5[nH]ccc5c4)c3)CC2)=C(c2ccc(Cl)cc2)C1 [Venetoclax] (first compound max 10 µM, 7x7, partner max 1 µM) | 0.003 | 0.0865 | 0.0001 | -0.0118 | -0.0146 | -0.0509 | 0.0388 | -0.0527 | 0.104 | 0.0791 | -0.0304 | -0.0577 | 0.0522 | 0.99 | 0.248 | 0.0838 | 0.846 | 0.0873 | 0.0374 | 0.402 |

Reference: the supplement of paper PMC11061612
